The results in this text go back to ChEMBL document CHEMBL2074340, “Molecular characterization of human and rat organic anion transporter OATP-D” (Am J Physiol Renal Physiol, 2003).

The target in data set [1] is T1, Solute carrier organic anion transporter family member 3A1 (Homo sapiens, UniProt Q9UIG8).
T1 sequence (Q9UIG8 whole entry): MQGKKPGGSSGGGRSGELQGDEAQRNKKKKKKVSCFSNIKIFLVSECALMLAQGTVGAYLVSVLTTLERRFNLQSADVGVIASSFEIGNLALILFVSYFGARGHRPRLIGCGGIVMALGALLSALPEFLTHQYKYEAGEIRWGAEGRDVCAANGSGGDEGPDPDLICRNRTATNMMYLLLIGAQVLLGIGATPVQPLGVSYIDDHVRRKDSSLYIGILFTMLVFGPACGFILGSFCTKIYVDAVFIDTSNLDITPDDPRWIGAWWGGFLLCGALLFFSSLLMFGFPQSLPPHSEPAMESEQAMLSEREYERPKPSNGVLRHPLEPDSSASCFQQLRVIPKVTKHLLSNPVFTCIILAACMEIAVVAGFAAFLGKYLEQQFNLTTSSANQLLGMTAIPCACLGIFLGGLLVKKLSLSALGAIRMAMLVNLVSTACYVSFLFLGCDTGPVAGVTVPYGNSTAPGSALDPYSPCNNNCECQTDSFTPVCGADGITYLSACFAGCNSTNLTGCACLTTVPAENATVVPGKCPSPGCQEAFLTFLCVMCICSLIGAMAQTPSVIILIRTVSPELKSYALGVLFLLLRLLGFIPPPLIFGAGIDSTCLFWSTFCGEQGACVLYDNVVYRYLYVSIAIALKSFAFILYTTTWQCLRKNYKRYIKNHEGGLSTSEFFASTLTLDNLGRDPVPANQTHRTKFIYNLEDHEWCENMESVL
Briefly: TP_TRANSPORTER: inhibition of PGE2 uptake (PGE2: 0.015 uM) by Prostaglandin F2alpha at 0.15uM in Xenopus laevis oocytes. The format is functional, cell-based. Further details: scale not given: the % may be the effect or the level left. The conditions noted are these: oocyte.

Data set [2] addresses T1, Solute carrier organic anion transporter family member 3A1. In words: (§1) TP_TRANSPORTER: uptake in Xenopus laevis oocytes. The class given is functional, cell-based. The conditions noted are these: oocyte.
Data set [3] concerns the target T2, Solute carrier organic anion transporter family member 3A1 (Rattus norvegicus, UniProt Q99N02).
T2 sequence (Q99N02 whole entry): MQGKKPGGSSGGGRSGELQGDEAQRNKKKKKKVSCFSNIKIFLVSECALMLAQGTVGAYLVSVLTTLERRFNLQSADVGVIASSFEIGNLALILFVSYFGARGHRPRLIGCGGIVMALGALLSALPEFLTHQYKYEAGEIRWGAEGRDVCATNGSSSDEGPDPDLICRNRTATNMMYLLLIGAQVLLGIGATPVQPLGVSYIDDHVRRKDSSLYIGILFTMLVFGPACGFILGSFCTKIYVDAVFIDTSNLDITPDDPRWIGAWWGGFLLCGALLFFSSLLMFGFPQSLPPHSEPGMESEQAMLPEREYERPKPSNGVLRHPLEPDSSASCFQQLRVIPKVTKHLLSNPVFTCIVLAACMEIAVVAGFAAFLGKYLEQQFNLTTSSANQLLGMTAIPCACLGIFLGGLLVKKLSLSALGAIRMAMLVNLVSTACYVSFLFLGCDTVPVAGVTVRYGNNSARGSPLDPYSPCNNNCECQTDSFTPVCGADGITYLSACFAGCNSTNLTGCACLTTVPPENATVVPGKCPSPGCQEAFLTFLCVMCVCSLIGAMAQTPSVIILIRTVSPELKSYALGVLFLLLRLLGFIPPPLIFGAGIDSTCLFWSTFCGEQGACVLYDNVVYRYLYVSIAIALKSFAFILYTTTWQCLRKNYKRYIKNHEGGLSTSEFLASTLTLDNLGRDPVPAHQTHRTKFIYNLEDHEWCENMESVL
The data set is described as §1. The class given is functional, cell-based. The conditions noted are these: oocyte.

The target in data set [4] is T3, Solute carrier organic anion transporter family member 3A1 (SLCO3A1/OATP3A1) (Homo sapiens, UniProt Q9UIG8).
T3 sequence (Q9UIG8 whole entry): T1 sequence (Q9UIG8 whole entry)
Briefly: TP_TRANSPORTER: inhibition of PGE2 uptake (PGE2: 0.015 uM) by P-aminohippuric acid at 0.15uM in Xenopus laevis oocytes. Set-up: scale not given: the % may be the effect or the level left. Conditions: Xenopus laevis oocytes expressing OATP3A1 (SLCO3A1), probe PGE2, read-out: Activity. The format is functional, cell-based, Oocyte.

Data set [5] deals with T3, Solute carrier organic anion transporter family member 3A1 (SLCO3A1/OATP3A1). Briefly: TP_TRANSPORTER: inhibition of PGE2 uptake (PGE2: 0.015 uM) by Prostaglandin E1 at 0.15uM in Xenopus laevis oocytes. The format is functional, cell-based, Oocyte. Further details: scale not given: the % may be the effect or the level left. The conditions noted are these: Xenopus laevis oocytes expressing OATP3A1 (SLCO3A1), probe PGE2, read-out: Activity.

Data set [6] shares this target. In words: TP_TRANSPORTER: inhibition of PGE2 uptake (PGE2: 0.015 uM) by Prostaglandin D2 at 0.15uM in Xenopus laevis oocytes. The class given is functional, cell-based, Oocyte. Set-up: scale not given: the % may be the effect or the level left. The conditions noted are these: Xenopus laevis oocytes expressing OATP3A1 (SLCO3A1), probe PGE2, read-out: Activity.
Data set [7] has as its target T1, Solute carrier organic anion transporter family member 3A1. In words: TP_TRANSPORTER: inhibition of PGE2 uptake (PGE2: 0.015 uM) by […] at 0.15uM in Xenopus laevis oocytes. The format is functional, cell-based. Set-up: scale not given: the % may be the effect or the level left. Conditions: oocyte.
Substrate in data set [8]: CC/C=C\C[C@H](O)/C=C/[C@H]1[C@H](O)CC(=O)[C@@H]1C/C=C\CCCC(=O)O
The data set is described as §1. The format is functional, cell-based, Oocyte.

Substrate in data set [9]: CCCCC[C@H](O)/C=C/[C@H]1[C@H](O)CC(=O)[C@@H]1CCCCCCC(=O)O
The description is as §1. The class given is functional, cell-based, Oocyte.

Regarding `CCCCC[C@H](O)/C=C/[C@@H]1[C@@H](C/C=C\CCCC(=O)O)[C@@H](O)C[C@H]1O` [DINOPROST], the Activity is 0% in data set [1], “substrate [+]” in data set [2] and “substrate [+]” in data set [3].
For the molecule `Nc1ccc(C(=O)NCC(=O)O)cc1` [AMINOHIPPURIC ACID], the activity at 0.15 µM in data set [4] came out at 30%.
For `CN(Cc1cnc2nc(N)nc(N)c2n1)c1ccc(C(=O)N[C@@H](CCC(=O)O)C(=O)O)cc1` [METHOTREXATE], the Activity entry in [2] was “is not a substrate [-]”.
As for `CC#CCC(C)[C@H](O)/C=C/[C@@H]1[C@H]2C/C(=C/CCCC(=O)O)C[C@H]2C[C@H]1O` (stereo not given in full) [ILOPROST], in data set [2], the Activity result was “is not a substrate [-]”.
Take `CCCCC[C@H](O)/C=C/[C@H]1[C@H](O)CC(=O)[C@@H]1CCCCCCC(=O)O` [ALPROSTADIL]: the activity at 0.15 µM in data set [5] came to 0%. The Activity entry in data set [3] is “substrate [+]”.
Turning to `CCCCC[C@H](O)/C=C/[C@H]1OC(O)C[C@H](O)[C@@H]1C/C=C\CCCC(=O)O` (stereo not given in full) [THROMBOXANE B2], in data set [2], the Activity entry is “is not a substrate [-]”.
As for PROSTAGLANDIN E5, the Activity entry in [3] is “substrate [+]”.
With `CCCCC[C@H](O)/C=C/[C@H]1C(=O)C[C@H](O)[C@@H]1C/C=C\CCCC(=O)O` [PROSTAGLANDIN D2], the activity at 0.15 µM in [6] worked out at 30%. The Activity entry in data set [2] is “is not a substrate [-]”.
The molecule PROSTAGLANDIN E4 returned an Activity in data set [7] of 0%.

B1: Solute carrier organic anion transporter family member 3A1 (Homo sapiens) (protein)
chain: T1 sequence (Q9UIG8 whole entry)
Turning to B1, the Km was found to be 0.0555 µM in [8] and 0.0485 µM in [9].
